Reference: the NIST ThermoML archive (doi:10.1016/j.jct.2018.02.010)
Numbers after ± are expanded uncertainties.

Columns and labels:
[1] = 298.15 K; for surface tension liquid-gas: Maximal bubble pressure; for mass density: 101.33 kPa, Liquid, Vibrating tube method
[2] = refractive index (Na D-line) (dimensionless); conditions: 298.15 K; 101.33 kPa; Liquid; refractometer model RFM 81
[3] = 101.3 kPa, Liquid mixture 1, spinning drop method

| Compound | surface tension liquid-gas [1] [mN/m] | mass density [1] [kg/m3] | refractive index [2] | interfacial tension ([3]; 278.15 K) [mN/m] | interfacial tension ([3]; 288.15 K) [mN/m] | interfacial tension ([3]; 298.15 K) [mN/m] | interfacial tension ([3]; 308.15 K) [mN/m] | interfacial tension ([3]; 318.15 K) [mN/m] | interfacial tension ([3]; 328.15 K) [mN/m] | interfacial tension ([3]; 338.15 K) [mN/m] | interfacial tension ([3]; 348.15 K) [mN/m] | interfacial tension ([3]; 358.15 K) [mN/m] |
| --- | --- | --- | --- | --- | --- | --- | --- | --- | --- | --- | --- | --- |
| CCCC(=O)OC [methyl butanoate] | 24.56 ± 0.25 | 892.62 ± 0.72 | 1.38486 ± 0.0008 |  |  |  |  |  |  |  |  |  |
| CCCC(=O)OC [methyl butanoate] + O |  |  |  | 10.6 ± 0.03 | 10.9 ± 0.03 | 11.1 ± 0.03 | 11.1 ± 0.03 | 11 ± 0.03 | 10.6 ± 0.03 | 10.05 ± 0.03 | 9.4 ± 0.03 |  |
| COC(C)=O [methyl ethanoate] | 24.93 ± 0.25 | 926.9 ± 0.72 | 1.36008 ± 0.0008 |  |  |  |  |  |  |  |  |  |
| COC(C)=O [methyl ethanoate] + O |  |  |  | 1.86 ± 0.03 | 1.77 ± 0.03 | 1.66 ± 0.03 | 1.49 ± 0.03 | 1.17 ± 0.03 | 0.75 ± 0.03 |  |  |  |
| CCCCCCC(=O)OC [methyl heptanoate] | 26.73 ± 0.26 | 875.61 ± 0.72 | 1.41086 ± 0.0008 |  |  |  |  |  |  |  |  |  |
| CCCCCCC(=O)OC [methyl heptanoate] + O |  |  |  |  | 16 ± 0.03 | 16.7 ± 0.03 | 17.3 ± 0.04 | 17.5 ± 0.04 | 17.6 ± 0.04 | 17.5 ± 0.04 | 16.9 ± 0.03 | 15.9 ± 0.03 |
| CCCCCC(=O)OC [methyl hexanoate] | 26.01 ± 0.26 | 879.76 ± 0.72 | 1.40443 ± 0.0008 |  |  |  |  |  |  |  |  |  |
| CCCCCC(=O)OC [methyl hexanoate] + O |  |  |  | 14.6 ± 0.03 | 15 ± 0.03 | 15.5 ± 0.03 | 15.7 ± 0.03 | 15.8 ± 0.03 | 15.7 ± 0.03 | 15.5 ± 0.03 | 15.1 ± 0.03 | 14.6 ± 0.03 |
| COC=O [methyl methanoate] | 24.96 ± 0.25 | 960.85 ± 0.3 | 1.34174 ± 0.0008 |  |  |  |  |  |  |  |  |  |
| COC=O [methyl methanoate] + O |  |  |  | 0.56 ± 0.03 | 0.77 ± 0.03 |  |  |  |  |  |  |  |
| CCCCC(=O)OC [methyl pentanoate] | 25.34 ± 0.25 | 885.66 ± 0.72 | 1.39628 ± 0.0008 |  |  |  |  |  |  |  |  |  |
| CCCCC(=O)OC [methyl pentanoate] + O |  |  |  | 13.6 ± 0.03 | 14 ± 0.03 | 14.1 ± 0.03 | 14 ± 0.03 | 13.9 ± 0.03 | 13.7 ± 0.03 | 13.5 ± 0.03 | 13.2 ± 0.03 | 12.9 ± 0.03 |
| CCC(=O)OC [methyl propanoate] | 24.61 ± 0.25 | 909.3 ± 0.72 | 1.37572 ± 0.0008 |  |  |  |  |  |  |  |  |  |
| CCC(=O)OC [methyl propanoate] + O |  |  |  | 7.02 ± 0.03 | 7.55 ± 0.03 | 7.69 ± 0.03 | 7.56 ± 0.03 | 7.34 ± 0.03 | 6.63 ± 0.03 | 5.06 ± 0.03 |  |  |
